Common to all, as to type: in vivo, mice (C57BL/6J)
For series [1], the system named is sciatic nerve. Briefly: transmission electron microscopy of sciatic nerve (unmyelinated neurons, mitochondria). To be noted: for median area of mitochondria in unmyelinated neuron: sciatic nerve at 4 weeks, control 0.036. The method, then:
Paclitaxel (Sigma-Aldrich) was dissolved with ethanol and cremophor (1:1) and diluted with normal saline (1:4). Peripheral neuropathy was induced in mice by intraperitoneal (i.p.) administration of 4 mg/kg paclitaxel every other day for a total of 4 injections (cumulative dose of 16 mg/kg), according to a previously described protocol. A stable, crystallized form of GSSSG was produced and provided by Kyowa Hakko Bio CO., LTD. GSSSG was pulverized and mixed in 0.5% methylcellulose. To evaluate the therapeutic effects of GSSSG in a model of PIPN, mice were randomly divided into three groups of 6. Mice were treated with: 1) paclitaxel alone; 2) paclitaxel and GSSSG; 3) or vehicle alone (control). Mice in groups 1 and 2 received paclitaxel as described above, while mice in the control group received the same volume of vehicle. The first dose of GSSSG was given within 1 hour after the first PTX injection. Treatment was administered as oral gavage for 28 days with GSSSG at 50 mg/kg/day (group 2) or 0.5% methylcellulose (groups 1 and 3). The dose of GSSSG was determined based on pilot studies. To determine the effect of GSSSG on the development of PIPN, behavioral tests to assess allodynia and hyperalgesia were conducted on all mice on days-1 (baseline), 7, 14, 21, and 28 after paclitaxel administration. Behavioral tests were performed by an investigator who was blinded to the treatment groups, as described in the next section. To evaluate unmyelinated neurons and mitochondria, we examined neurons in sciatic nerve by a transmission electron microscope. Resin-embedded nerve blocks using the same method above were sectioned at 50 nm by an ultramicrotome. Sections were examined with an FEI Morgagni transmission electron microscope. Low (×2200) and high (×11000) magnification of images were captured with an AMT 2K charge-coupled device camera (Advanced Microscopy Techniques, Woburn, MA, USA). Unmyelinated neurons were quantified in 9 low magnified images per group (3 mice per group). The percentage of unmyelinated neurons was calculated by dividing unmyelinated neurons by the total number of neurons. The cross-sectional area of mitochondria (μm^2) in unmyelinated neurons was quantified in 18 to 20 high magnified images per group (3 mice per group). In total, 80 to 100 mitochondrion per group were evaluated. Quantification was conducted by a blinded examiner, and the images were evaluated by a pathologist (A S-R) blinded to the identity of samples.

For series [2], the system named is mouse model of PIPN. Briefly: hot plate test of thermal hyperalgesia in mouse model of PIPN. The source says:
(§1) All animal protocols were approved by the Massachusetts General Hospital Institutional Animal Care and Use Committee. Animals were cared for in accordance with the guidelines established by the NIH and the International Association for the Study of Pain [16]. Male C57BL/6J mice (6-7 weeks old) were purchased from the Jackson Laboratory (Bar Harbor, ME, USA). The mice were housed in a 12-hour shift light-control environment from 7 am to […] with ad libitum access to food and water in our animal facility until the time of experiments.
Paclitaxel (Sigma-Aldrich) was dissolved with ethanol and cremophor (1:1) and diluted with normal saline (1:4). Peripheral neuropathy was induced in mice by intraperitoneal (i.p.) administration of 4 mg/kg paclitaxel every other day for a total of 4 injections (cumulative dose of 16 mg/kg), according to a previously described protocol. A stable, crystallized form of GSSSG was produced and provided by Kyowa Hakko Bio CO., LTD. […] The dose of GSSSG was determined based on pilot studies. […]
To assess hyperalgesia, the heat threshold was determined by the hot plate test. […] The test was repeated 2 times after 5 minutes interval by a blinded examiner, and the average time was calculated. The ratio of change from the baseline was calculated from the difference of the latency response time from the baseline divided by the baseline time. […]

For series [3], the system named is mouse model of PIPN. Put plainly: von Frey test of mechanical allodynia in mouse model of paclitaxel-induced peripheral neuropathy.
Excerpt: as §1
Paclitaxel (Sigma-Aldrich) was dissolved with ethanol and cremophor (1:1) and diluted with normal saline (1:4). Peripheral neuropathy was induced in mice by intraperitoneal (i.p.) administration of 4 mg/kg paclitaxel every other day for a total of 4 injections (cumulative dose of 16 mg/kg), according to a previously described protocol. A stable, crystallized form of GSSSG was produced and provided by Kyowa Hakko Bio CO., LTD. GSSSG was pulverized and mixed in 0.5% methylcellulose. […] The dose of GSSSG was determined based on pilot studies. […]
Mechanical withdrawal thresholds were measured by the manual von Frey filament test to assess mechanical allodynia. […] The 50% threshold of a paw withdrawal response was calculated by the Up-down Reader based on the up and down method. […]

Where [4] appears, read: paclitaxel alone, 4 weeks, vs control mice.

Consider `N[C@@H](CCC(=O)N[C@@H](CSSSC[C@H](NC(=O)CC[C@H](N)C(=O)O)C(=O)NCC(=O)O)C(=O)NCC(=O)O)C(=O)O` [GSSSG, glutathione trisulfide], for which the “mitochondrial swelling in axons of unmyelinated neurons” value in series [1] (paclitaxel and GSSSG 50 mg/kg/day oral, 4 weeks) was “Prevented Mitochondrial Swelling”. Also, in series [1] (paclitaxel and GSSSG 50 mg/kg/day oral, 4 weeks, vs paclitaxel alone), the “ratio of unmyelinated neurons to total neurons in sciatic nerve” value was “larger ratio of unmyelinated neurons”. In addition, the “median area of mitochondria in unmyelinated neuron” value in series [1] (paclitaxel with GSSSG 50 mg/kg/day oral) was determined as 0.041 μm^2. Moreover, the “threshold for thermal hyperalgesia (hot plate test)” value in series [2] (GSSSG 50 mg/kg/day oral in paclitaxel-treated mice) was “not altered”. The “mechanical allodynia (von Frey test)” value in series [3] (GSSSG 50 mg/kg/day oral for 28 days in paclitaxel-treated mice, vs paclitaxel alone) is “mitigated mechanical allodynia over the experimental period”.

As to `CC(=O)O[C@H]1C(=O)[C@@]2(C)[C@H]([C@H](OC(=O)c3ccccc3)[C@]3(O)C[C@H](OC(=O)[C@H](O)[C@@H](NC(=O)c4ccccc4)c4ccccc4)C(C)=C1C3(C)C)[C@]1(OC(C)=O)CO[C@@H]1C[C@@H]2O` [paclitaxel, Paclitaxel, reference compound], in series [1] (setting [4]), the “cross-sectional area of mitochondria in unmyelinated sciatic neurons” value is reported as “significantly larger than those in control mice” and the “ratio of unmyelinated neurons to total neurons in sciatic nerve” value was “tended to decrease unmyelinated neurons compared to control mice”. Besides, the “median area of mitochondria in unmyelinated neuron” value in series [1] (paclitaxel alone) is listed as 0.057 μm^2. Also, the “thermal hyperalgesia (hot plate test)” value in series [2] (paclitaxel 4 mg/kg i.p. every other day, 4 injections, 4 weeks, vs control) is “induced thermal hyperalgesia”. In series [3] (paclitaxel 4 mg/kg i.p. every other day, 4 injections, week 1 through week 4, vs control mice), the “paw withdrawal threshold (von Frey test)” value was “significantly lower paw withdrawal threshold than control mice”.

The values above are taken from patent publication US20260097091A1, “ADMINISTRATION OF GLUTATHIONE TRISULFIDE TO AMELIORATE PERIPHERAL NEUROPATHY” (The General Hospital Corporation, priority 2022, published 2026).
